Here are results for 16 compounds from PubChem BioAssay (NCI).

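Method: 48-hour compound exposure of cells in 96-well plates, five concentrations, linear interpolation of endpoints. TGI is the concentration that stops growth completely.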 Bounds are passed on as bounds.

The first assay deals with T-47D breast. Briefly: NCI-60 cell line screen, 48 h.
`Cc1cc(C)c2c(c1)C/C(=C\c1ccccc1C(=O)O)C2=O` yielded a TGI of over 100 µM.
Still for that read-out and setting: under `[N-]=[N+]=Nc1cc(=O)[nH]nc1-c1ccccc1` stands over 100 µM.
Same read-out and setting: under `Cc1nc2ccc(NC(=S)Nc3ccccc3)cc2c(=O)n1-c1ccccc1` stands over 100 µM; under `Cn1c(=O)oc2cc(C(O)CN3CCN(Cc4ccccn4)CC3)c(Cl)cc21` (stereo unspecified), over 100 µM.
On the same count and under the same terms, under `O=c1cc(CO)oc(C(O)c2ccccc2)c1O` (stereo unspecified) stands over 100 µM.

For a further assay, the system named is HL-60(TB) leukemia. Briefly: NCI-60 cell line screen, 48 h.
`O=C1c2cccc3cccc(c23)C(=O)N1CCCNCCCNCCCCNCCCNCCCN1C(=O)c2cccc3cccc(c23)C1=O` registered a TGI of 4.64 µM.
`Fc1ccc(C(=C2CCN(CCc3ccc4[nH]c(=S)[nH]c4c3)CC2)c2ccc(F)cc2)cc1` displayed a TGI of 4.63 µM.
`Nc1nc(NCC2(CO)CC2)cc(=O)[nH]1` showed a TGI of over 100 µM.
With `Cc1ccc(-c2n[nH]c(=O)n2/N=C\c2ccc([N+](=O)[O-])cc2)cc1`, the TGI stood at 97.6 µM.
On the same count and under the same terms, the result for `Cc1cc(C2CC(O)C(CO)O2)c(F)cc1F` (stereo unspecified) reads over 100 µM; that for `Nc1nc(Cl)c(N)c(NCC2(CO)CCCC2)n1`, over 100 µM; that for `CCOC(=O)C1(C/C=C/CBr)CCc2ccccc2C1=O` (stereo unspecified), over 100 µM.
The compound `O=C(Oc1cccnc1)c1cc2cc(CCl)ccc2oc1=O` yielded a TGI of 58.4 µM.
The same measure, in the same setting: the result for `O=C1c2cccc3cccc(c23)C2NCCCN12` (stereo unspecified) reads over 100 µM; that for `CN(C)c1ccc(/C=N\NC(=O)Nc2cccc3ccccc23)cc1`, 7.03 µM; that for `O=S1(=O)Cc2ccc3c4c2-c2c(ccc5ccc(c-4c25)CS(=O)(=O)C3)C1`, over 100 µM.
In turn, `Cc1cc(C)c2c(c1)C/C(=C\c1ccccc1C(=O)O)C2=O` registered a TGI of over 100 µM.
Still for that read-out and setting: the result for `[N-]=[N+]=Nc1cc(=O)[nH]nc1-c1ccccc1` reads over 100 µM; that for `Cc1nc2ccc(NC(=S)Nc3ccccc3)cc2c(=O)n1-c1ccccc1`, over 100 µM; that for `Cn1c(=O)oc2cc(C(O)CN3CCN(Cc4ccccn4)CC3)c(Cl)cc21` (stereo unspecified), over 100 µM.
For the compound `O=c1cc(CO)oc(C(O)c2ccccc2)c1O` (stereo unspecified), the TGI was over 100 µM.

The subject of a further assay is BT-549 breast. In words: NCI-60 cell line screen, 48 h.
Consider `O=C1c2cccc3cccc(c23)C(=O)N1CCCNCCCNCCCCNCCCNCCCN1C(=O)c2cccc3cccc(c23)C1=O`, for which the TGI was found to be 15.1 µM.
In turn, `Fc1ccc(C(=C2CCN(CCc3ccc4[nH]c(=S)[nH]c4c3)CC2)c2ccc(F)cc2)cc1` came in with a TGI of 14.2 µM.
For the compound `Nc1nc(NCC2(CO)CC2)cc(=O)[nH]1`, the TGI was over 100 µM.
Still for that read-out and setting: under `Cc1ccc(-c2n[nH]c(=O)n2/N=C\c2ccc([N+](=O)[O-])cc2)cc1` stands over 100 µM; under `Cc1cc(C2CC(O)C(CO)O2)c(F)cc1F` (stereo unspecified), over 100 µM; under `Nc1nc(Cl)c(N)c(NCC2(CO)CCCC2)n1`, over 100 µM.
Regarding `CCOC(=O)C1(C/C=C/CBr)CCc2ccccc2C1=O` (stereo unspecified), the TGI was 44 µM.
On the same count and under the same terms, under `O=C(Oc1cccnc1)c1cc2cc(CCl)ccc2oc1=O` stands 53.7 µM.
On the same count and under the same terms, under `O=C1c2cccc3cccc(c23)C2NCCCN12` (stereo unspecified) stands over 100 µM; under `CN(C)c1ccc(/C=N\NC(=O)Nc2cccc3ccccc23)cc1`, 72.4 µM; under `O=S1(=O)Cc2ccc3c4c2-c2c(ccc5ccc(c-4c25)CS(=O)(=O)C3)C1`, over 100 µM.
As to `Cc1cc(C)c2c(c1)C/C(=C\c1ccccc1C(=O)O)C2=O`, the TGI amounted to 97.8 µM.
On the same count and under the same terms, under `[N-]=[N+]=Nc1cc(=O)[nH]nc1-c1ccccc1` stands over 100 µM.
Still for that read-out and setting: under `Cc1nc2ccc(NC(=S)Nc3ccccc3)cc2c(=O)n1-c1ccccc1` stands over 100 µM; under `Cn1c(=O)oc2cc(C(O)CN3CCN(Cc4ccccn4)CC3)c(Cl)cc21` (stereo unspecified), over 100 µM; under `O=c1cc(CO)oc(C(O)c2ccccc2)c1O` (stereo unspecified), over 100 µM.

The subject of a further assay is A549 NSCLC. In words: NCI-60 cell line screen, 48 h.
With `O=C1c2cccc3cccc(c23)C(=O)N1CCCNCCCNCCCCNCCCNCCCN1C(=O)c2cccc3cccc(c23)C1=O`, the TGI worked out at 12.9 µM.
Turning to `Fc1ccc(C(=C2CCN(CCc3ccc4[nH]c(=S)[nH]c4c3)CC2)c2ccc(F)cc2)cc1`, the TGI was over 40.5 µM.
In the case of `Nc1nc(NCC2(CO)CC2)cc(=O)[nH]1`, the TGI is over 100 µM.
`Cc1ccc(-c2n[nH]c(=O)n2/N=C\c2ccc([N+](=O)[O-])cc2)cc1` registered a TGI of over 100 µM.
On the same count and under the same terms, under `Cc1cc(C2CC(O)C(CO)O2)c(F)cc1F` (stereo unspecified) stands over 100 µM.
The same measure, in the same setting: under `Nc1nc(Cl)c(N)c(NCC2(CO)CCCC2)n1` stands over 100 µM.
Consider `CCOC(=O)C1(C/C=C/CBr)CCc2ccccc2C1=O` (stereo unspecified), for which the TGI amounted to 30.6 µM.
`O=C(Oc1cccnc1)c1cc2cc(CCl)ccc2oc1=O` showed a TGI of over 100 µM.
For `O=C1c2cccc3cccc(c23)C2NCCCN12` (stereo unspecified), the TGI was over 100 µM.
Same read-out and setting: the result for `CN(C)c1ccc(/C=N\NC(=O)Nc2cccc3ccccc23)cc1` reads over 100 µM; that for `O=S1(=O)Cc2ccc3c4c2-c2c(ccc5ccc(c-4c25)CS(=O)(=O)C3)C1`, over 100 µM.
Still for that read-out and setting: under `Cc1cc(C)c2c(c1)C/C(=C\c1ccccc1C(=O)O)C2=O` stands over 100 µM; under `[N-]=[N+]=Nc1cc(=O)[nH]nc1-c1ccccc1`, over 100 µM.
The same measure, in the same setting: the result for `Cn1c(=O)oc2cc(C(O)CN3CCN(Cc4ccccn4)CC3)c(Cl)cc21` (stereo unspecified) reads over 100 µM.
`O=c1cc(CO)oc(C(O)c2ccccc2)c1O` (stereo unspecified) yielded a TGI of over 100 µM.

The test system of a further assay is OVCAR-3 ovarian. Briefly: NCI-60 cell line screen, 48 h.
With `O=C1c2cccc3cccc(c23)C(=O)N1CCCNCCCNCCCCNCCCNCCCN1C(=O)c2cccc3cccc(c23)C1=O`, the TGI is 19.6 µM.
Same read-out and setting: under `Fc1ccc(C(=C2CCN(CCc3ccc4[nH]c(=S)[nH]c4c3)CC2)c2ccc(F)cc2)cc1` stands 4.23 µM.
Still for that read-out and setting: under `Nc1nc(NCC2(CO)CC2)cc(=O)[nH]1` stands over 100 µM.
Same read-out and setting: under `Cc1ccc(-c2n[nH]c(=O)n2/N=C\c2ccc([N+](=O)[O-])cc2)cc1` stands over 100 µM; under `Cc1cc(C2CC(O)C(CO)O2)c(F)cc1F` (stereo unspecified), over 100 µM.
In turn, `Nc1nc(Cl)c(N)c(NCC2(CO)CCCC2)n1` came in with a TGI of over 100 µM.
`O=C(Oc1cccnc1)c1cc2cc(CCl)ccc2oc1=O` registered a TGI of 57.9 µM.
The same measure, in the same setting: under `O=C1c2cccc3cccc(c23)C2NCCCN12` (stereo unspecified) stands over 100 µM; under `O=S1(=O)Cc2ccc3c4c2-c2c(ccc5ccc(c-4c25)CS(=O)(=O)C3)C1`, over 100 µM.
On the same count and under the same terms, under `Cc1cc(C)c2c(c1)C/C(=C\c1ccccc1C(=O)O)C2=O` stands over 100 µM; under `[N-]=[N+]=Nc1cc(=O)[nH]nc1-c1ccccc1`, over 100 µM.
Still for that read-out and setting: under `Cc1nc2ccc(NC(=S)Nc3ccccc3)cc2c(=O)n1-c1ccccc1` stands over 100 µM; under `Cn1c(=O)oc2cc(C(O)CN3CCN(Cc4ccccn4)CC3)c(Cl)cc21` (stereo unspecified), over 100 µM; under `O=c1cc(CO)oc(C(O)c2ccccc2)c1O` (stereo unspecified), over 100 µM.

The test system of the next assay is HCT-15 colon. Briefly: NCI-60 cell line screen, 48 h.
With `O=C1c2cccc3cccc(c23)C(=O)N1CCCNCCCNCCCCNCCCNCCCN1C(=O)c2cccc3cccc(c23)C1=O`, the TGI amounted to 30.9 µM.
Compound `Fc1ccc(C(=C2CCN(CCc3ccc4[nH]c(=S)[nH]c4c3)CC2)c2ccc(F)cc2)cc1` returned a TGI of 11.4 µM.
For `Nc1nc(NCC2(CO)CC2)cc(=O)[nH]1`, the TGI is over 100 µM.
In the case of `Cc1ccc(-c2n[nH]c(=O)n2/N=C\c2ccc([N+](=O)[O-])cc2)cc1`, the TGI is over 100 µM.
The same measure, in the same setting: under `Cc1cc(C2CC(O)C(CO)O2)c(F)cc1F` (stereo unspecified) stands over 100 µM.
